Test results reported in US7820197B2, “Percutaneous preparations” (Astellas Pharma Inc., priority 2002, dated 2010).
Read-outs that look alike come from different tables or passages of the source.

Columns and labels:
[1] = as compared to control; cited from earlier work
[2] = test system: dihydrotachysterol-induced calcification (calciphylaxis); details: cited from earlier work
Solubility properties = format: physicochemical
[3] = Percutaneous absorption test of 14C-incadronate aqueous solution; format: in vivo, rat; details: in 24 hours after the administration
Excerpt: The rat abdominal hair was shaved and a round cell (made of acryl, 20 mm in diameter) was fixed on the skin with a medical adhesive. […] During the test, the rat was fixed dorsally under urethane anesthesia. Bone tissue specimens were burnt in a tissue combustion equipment and the radioactivity was counted by a scintillation counter.

## CC(O)(P(=O)(O)O)P(=O)(O)O [etidronate]
[1]
  enhancement of penetration effect by decyl methyl sulfoxide: about 6 fold
[2]; composition of etidronate and penetrating carrier containing decyl methyl sulfoxide
  skin calcium level: 2.026%
[2]; etidronate alone dissolved in the penetrating carrier vehicle
  skin calcium level: 0.067%

## O=P(O)(O)C(O)(Cc1cnc2ccccn12)P(=O)(O)O [minodronic acid, 1-hydroxy-2-(imidazo[1,2-a]pyridin-3-yl)ethylidenebisphosphonic acid]
Solubility properties; alkaline solvent
  solubility in an alkaline solvent: soluble in an alkaline solvent
Solubility properties; organic solvent
  solubility in an organic solvent: insoluble even in an organic solvent
Solubility properties; water
  solubility in water: practically insoluble in water

## O=P([O-])(O)C(NC1CCCCCC1)P(=O)([O-])O.[Na+].[Na+] [incadronate, disodium incadronate]
[3]
  concentration in the bone tissues: very high concentration in the bone tissues
